The record followed here is patent US7402687B2, “Dihydrobenzofuran derivatives and uses thereof” (Wyeth, priority 2005, dated 2008).

For test [1], the target named is T1, human 5-hydroxytryptamine-2C (h5-HT2C) receptor (Homo sapiens, UniProt P28335).
T1 construct: expressed in transfected cells; host or cells: CHO (Chinese Hamster Ovary) cells; membrane preparation
T1 sequence (P28335 33-458): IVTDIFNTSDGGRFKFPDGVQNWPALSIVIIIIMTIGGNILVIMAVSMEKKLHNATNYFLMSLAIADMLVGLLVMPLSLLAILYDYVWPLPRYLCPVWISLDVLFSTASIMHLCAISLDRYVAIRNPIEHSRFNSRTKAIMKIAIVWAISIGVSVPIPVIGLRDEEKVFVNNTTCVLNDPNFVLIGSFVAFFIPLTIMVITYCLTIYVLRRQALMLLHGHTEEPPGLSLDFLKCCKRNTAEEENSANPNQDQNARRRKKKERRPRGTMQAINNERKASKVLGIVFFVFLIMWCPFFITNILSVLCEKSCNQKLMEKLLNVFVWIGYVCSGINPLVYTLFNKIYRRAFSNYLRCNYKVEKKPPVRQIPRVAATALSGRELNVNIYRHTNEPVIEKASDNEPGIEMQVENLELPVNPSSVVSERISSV
In words: [125I]DOI competition binding at h5-HT2C receptor in transfected CHO cell membranes. Particulars: [125I]DOI displacement, CHO membranes expressing h5-HT2C; 95% confidence interval in adjacent column.

In test [2] the target is T2, human serotonin 5-HT2C receptor (Homo sapiens, UniProt P28335).
T2 construct: expressed in transfected cells; host or cells: CHO (Chinese Hamster Ovary) cells; membrane preparation
T2 sequence (P28335 33-458): T1 sequence (P28335 33-458)
In words: Saturation binding of [125I]DOI at the human 5-HT2C receptor. The note with it: saturation binding with increasing concentrations of [125I]DOI; read-out: dissociation constant, KD. An excerpt: To evaluate the affinity of various compounds of formula I for activity at the 5-HT2C receptor, a CHO (Chinese Hamster Ovary) cell line transfected with the cDNA expressing the human 5-hydroxytryptamine-2C (h5-HT2C) receptor is maintained in DMEM (Dulbecco's Modified Eagle Media) supplied with fetal calf serum, glutamine, and the markers: guaninephosphoribosyl transferase (GTP) and hypoxanthinethymidine (HT). The cells are allowed to grow to confluence in large culture dishes with intermediate changes of media and splitting. Upon reaching confluence, the cells are harvested by scraping. The harvested cells are suspended in half volume of fresh physiological phosphate buffered saline (PBS) solution and centrifuged at low speed (900×g). This operation is repeated once. The collected cells are then homogenized with a polytron at setting #7 for 15 sec in ten volumes of 50 mM Tris.HCl, pH 7.4 and 0.5 mM EDTA. […] The resulting pellet is resuspended in a small volume of Tris.HCl buffer and the tissue protein content is determined in aliquots of 10-25 μL volumes. […]
The dissociation constant, KD of [^125I] […] The bound complex caught on the filter disk is dried in a vacuum oven heated to 60° C. and the radioactivity measured by liquid scintillation with 40 μL Microscint-20 scintillant in a Packard TopCount® equipped with six (6) photomultiplier detectors.

For orientation: Ki means the equilibrium dissociation constant of an inhibitor or competing ligand from its target. Low values mean a stronger hold on the target, high ones a looser hold on the target. `CSc1ccc2c(c1)C(N1CCN(C)CC1)Cc1ccccc1S2` (centres unmarked) [Methiothepin] showed a Ki in test [1] of 4.6 nM. Broadly, the Kd is a measure of binding affinity in units of concentration. `COc1cc(CC(C)N)c(OC)cc1I` (centres unmarked) [[^125I] DOI]: the Kd in test [2] was 0.4 nM.
